Reference: US20170037028A1 (BAYER PHARMA AKTIENGESELLSCHAFT, priority 2013, published 2017)

Biological target: T1, GLUT1 (Homo sapiens, UniProt P11166)
T1 sequence (P11166 1-492): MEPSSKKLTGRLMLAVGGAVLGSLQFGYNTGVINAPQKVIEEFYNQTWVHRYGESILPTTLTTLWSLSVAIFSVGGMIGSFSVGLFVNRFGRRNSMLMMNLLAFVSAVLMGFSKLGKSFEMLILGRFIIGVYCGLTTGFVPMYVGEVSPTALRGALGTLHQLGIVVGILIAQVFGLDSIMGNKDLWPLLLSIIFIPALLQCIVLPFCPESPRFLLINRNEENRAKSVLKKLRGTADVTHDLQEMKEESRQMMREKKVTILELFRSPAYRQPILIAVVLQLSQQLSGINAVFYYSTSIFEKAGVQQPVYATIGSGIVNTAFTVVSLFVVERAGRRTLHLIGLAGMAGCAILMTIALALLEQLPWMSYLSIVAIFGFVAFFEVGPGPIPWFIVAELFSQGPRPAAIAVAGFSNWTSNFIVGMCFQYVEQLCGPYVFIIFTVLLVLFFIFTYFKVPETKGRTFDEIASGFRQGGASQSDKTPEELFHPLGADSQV
Experiment: Indirect measurement of GLUT1 activity by quantification of intracellular ATP levels (glucose induced ATP increase)
Type: cell-based
Design: endogenous in cells; host or cells: DLD1 or CHO-K1
Details: read-out: IC50 regarding glucose induced ATP increase (GLUT1 inhibition)
Outline: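 DLD1 or CHO-K1 cells were starved overnight in glucose-free medium with 1% FCS, then combined with an oxidative phosphorylation inhibitor. GLUT1 activity was read as glucose-induced ATP increase, GLUT2 as fructose-induced. Intracellular ATP was quantified by CellTiter-Glo luminescence.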

Row | Compound | IC50 [nM]
1 | COc1ccc(Cn2nc(C)c(NC(=O)c3cc(C(N)=O)nc4cc(F)c(Cl)cc34)c2C)cc1 [Example 214, 6-chloro-7-fluoro-N^4-[1-(4-methoxybenzyl)-3,5-dimethyl-1H-pyrazol-4-yl]quinoline-2,4-dicarboxamide] | 1.1
2 | Cc1nn(Cc2ccccc2C#N)c(C)c1NC(=O)c1cc(C(N)=O)nc2cc(F)c(Cl)cc12 [Example 215, 6-chloro-N^4-[1-(2-cyanobenzyl)-3,5-dimethyl-1H-pyrazol-4-yl]-7-fluoroquinoline-2,4-dicarboxamide] | 1.6
3 | Cc1c(NC(=O)c2cc(C(N)=O)nc3cc(F)c(F)cc23)c(C(F)(F)F)nn1Cc1ccc(C#N)cc1 [Example 216, N^4-[1-(4-cyanobenzyl)-5-methyl-3-(trifluoromethyl)-1H-pyrazol-4-yl]-6,7-difluoroquinoline-2,4-dicarboxamide] | 2.1
4 | Cc1nn(Cc2ccc(S(C)(=O)=O)cc2)c(C)c1NC(=O)c1cc(C(F)(F)F)nc2ccc(Br)cc12 [Example 217, 6-bromo-N-{3,5-dimethyl-1-[4-(methylsulfonyl)benzyl]-1H-pyrazol-4-yl}-2-(trifluoromethyl)quinoline-4-carboxamide] | 3.2
5 | Cc1nn(Cc2ccc(C#N)c(F)c2)c(C)c1NC(=O)c1cc(C(F)(F)F)nc2ccc(Br)cc12 [Example 218, 6-bromo-N-[1-(4-cyano-3-fluorobenzyl)-3,5-dimethyl-1H-pyrazol-4-yl]-2-(trifluoromethyl)quinoline-4-carboxamide] | 3.4
6 | Cc1c(NC(=O)c2cc(C(N)=O)nc3ccc(F)cc23)c(C(F)(F)F)nn1Cc1ccc(C#N)cc1 [Example 219, N^4-[1-(4-cyanobenzyl)-5-methyl-3-(trifluoromethyl)-1H-pyrazol-4-yl]-6-fluoroquinoline-2,4-dicarboxamide] | 5.4
7 | Cc1nn(Cc2cccnc2C#N)c(C)c1NC(=O)c1cc(C(N)=O)nc2cc(F)c(F)cc12 [Example 220, N^4-{1-[(2-cyanopyridin-3-yl)methyl]-3,5-dimethyl-1H-pyrazol-4-yl}-6,7-difluoroquinoline-2,4-dicarboxamide] | 6.4
8 | Cc1nn(Cc2ccccc2C#N)c(C)c1NC(=O)c1cc(C(N)=O)nc2ccc(F)cc12 [Example 221, N^4-[1-(2-cyanobenzyl)-3,5-dimethyl-1H-pyrazol-4-yl]-6-fluoroquinoline-2,4-dicarboxamide] | 6.7
9 | Cc1nn(Cc2ncccc2C#N)c(C)c1NC(=O)c1cc(C(N)=O)nc2cc(F)c(F)cc12 [Example 222, N^4-{1-[(3-cyanopyridin-2-yl)methyl]-3,5-dimethyl-1H-pyrazol-4-yl}-6,7-difluoroquinoline-2,4-dicarboxamide] | 7.1
10 | Cc1nn(Cc2cccnc2C#N)c(C)c1NC(=O)c1cc(C(N)=O)nc2ccccc12 [Example 223, N^4-{1-[(2-cyanopyridin-3-yl)methyl]-3,5-dimethyl-1H-pyrazol-4-yl}quinoline-2,4-dicarboxamide] | 11.1
11 | Cc1nn(Cc2ccc(S(C)(=O)=O)cc2)c(C)c1NC(=O)c1cc(C(N)=O)nc2ccccc12 [Example 224, N^4-{3,5-dimethyl-1-[4-(methylsulfonyl)benzyl]-1H-pyrazol-4-yl}quinoline-2,4-dicarboxamide] | 11.2
12 | Cc1nn(Cc2ccc(C#N)nc2)c(C)c1NC(=O)c1cc(C(N)=O)nc2ccccc12 [Example 225, N^4-{1-[(6-cyanopyridin-3-yl)methyl]-3,5-dimethyl-1H-pyrazol-4-yl}quinoline-2,4-dicarboxamide] | 14
13 | COc1ccc(Cn2nc(C)c(NC(=O)c3cc(C(N)=O)nc4cc(F)c(F)cc34)c2C)cc1 [Example 226, 6,7-difluoro-N^4-[1-(4-methoxybenzyl)-3,5-dimethyl-1H-pyrazol-4-yl]quinoline-2,4-dicarboxamide] | 4
14 | COc1ccc(Cn2nc(C)c(NC(=O)c3cc(C(N)=O)nc4ccc(F)cc34)c2C)cc1 [Example 227, 6-fluoro-N^4-[1-(4-methoxybenzyl)-3,5-dimethyl-1H-pyrazol-4-yl]quinoline-2,4-dicarboxamide] | 4.6
